Data taken from ChEMBL document CHEMBL6153104, “Discovery of the first potent ROR1 degrader for the treatment of non-small cell lung cancer” (Eur J Med Chem, 2025).
Activity calls are given as the source filed them. The calls are words filed in the database; no cut-off is given here.

Key:
NCI-H23 [1] = test: Antiproliferative activity against human NCI-H23 cells assessed as inhibition of cell proliferation incubated for 72 hrs by CCK8 assay; type: functional, cell-based; details: NCI-H23, 72 h
NCI-H460 = test: Antiproliferative activity against human NCI-H460 cells assessed as inhibition of cell proliferation incubated for 72 hrs by CCK8 assay; type: functional, cell-based; details: NCI-H460, 72 h
NCI-H23 [2] = test: Induction of apoptosis in human NCI-H23 cells assessed as PARP1 cleavage at 0.1 to 1 uM measured after 10 hrs by Western blot analysis; type: functional, cell-based; details: dose 0.1-1 µM
[3] = biological target: Inactive tyrosine-protein kinase transmembrane receptor ROR1 (Homo sapiens, UniProt Q01973); test: Binding affinity to RED-NHS-labeled human ROR1 kinase domain (460 to 752 residues) extracted from Sf9 cells assessed as dissociation constant incubated for 30 mins by MST analysis; type: cell-free
NCI-H23 [4] = test: Induction of apoptosis in human NCI-H23 cells assessed as viable cells at 0.3 uM incubated for 24 hrs by […]/Annexin V-PE staining based flow cytometric analysis (reference value: 92.7 %); type: functional; details: read-out: Activity
NCI-H23 [5] = test: Induction of apoptosis in human NCI-H23 cells assessed as late apoptotic cells at 0.1 uM incubated for 24 hrs by […]/Annexin V-PE staining based flow cytometric analysis (reference value: 1.6 %); type: functional
NCI-H23 [6] = test: Induction of apoptosis in human NCI-H23 cells assessed as necrotic cells at 0.1 uM incubated for 24 hrs by […]/Annexin V-PE staining based flow cytometric analysis (reference value: 0.5 %); type: functional
NCI-H23 [7] = test: Induction of apoptosis in human NCI-H23 cells assessed as PARP1 cleavage at 1 uM measured after 10 hrs by Western blot analysis; type: functional
NCI-H1299 = test: Antiproliferative activity against human NCI-H1299 cells assessed as inhibition of cell proliferation incubated for 72 hrs by CCK8 assay; type: functional, cell-based; details: NCI-H1299, 72 h
NCI-H23 [8] = test: Induction of apoptosis in human NCI-H23 cells assessed as early apoptotic cells at 1 uM incubated for 24 hrs by […]/Annexin V-PE staining based flow cytometric analysis (reference value: 5.1 %); type: functional
NCI-H1975 = test: Antiproliferative activity against human NCI-H1975 cells assessed as inhibition of cell proliferation incubated for 72 hrs by CCK8 assay; type: functional, cell-based; details: NCI-H1975, 72 h
NCI-H23 [9] = test: Induction of apoptosis in human NCI-H23 cells assessed as viable cells at 1 uM incubated for 24 hrs by […]/Annexin V-PE staining based flow cytometric analysis (reference value: 92.7 %); type: functional; details: read-out: Activity
NCI-H23 [10] = test: Induction of apoptosis in human NCI-H23 cells assessed as necrotic cells at 0.3 uM incubated for 24 hrs by […]/Annexin V-PE staining based flow cytometric analysis (reference value: 0.5 %); type: functional
NCI-H23 [11] = test: Induction of apoptosis in human NCI-H23 cells assessed as early apoptotic cells at 0.1 uM incubated for 24 hrs by […]/Annexin V-PE staining based flow cytometric analysis (reference value: 5.1 %); type: functional
NCI-H23 [12] = test: Induction of apoptosis in human NCI-H23 cells assessed as late apoptotic cells at 1 uM incubated for 24 hrs by […]/Annexin V-PE staining based flow cytometric analysis (reference value: 1.6 %); type: functional
NCI-H23 [13] = test: Induction of apoptosis in human NCI-H23 cells assessed as viable cells at 0.1 uM incubated for 24 hrs by […]/Annexin V-PE staining based flow cytometric analysis (reference value: 92.7 %); type: functional; details: read-out: Activity
NCI-H23 [14] = test: Induction of apoptosis in human NCI-H23 cells assessed as early apoptotic cells at 0.3 uM incubated for 24 hrs by […]/Annexin V-PE staining based flow cytometric analysis (reference value: 5.1 %); type: functional
NCI-H23 [15] = test: Induction of apoptosis in human NCI-H23 cells assessed as necrotic cells at 1 uM incubated for 24 hrs by […]/Annexin V-PE staining based flow cytometric analysis (reference value: 0.5 %); type: functional
NCI-H23 [16] = test: Induction of apoptosis in human NCI-H23 cells assessed as late apoptotic cells at 0.3 uM incubated for 24 hrs by […]/Annexin V-PE staining based flow cytometric analysis (reference value: 1.6 %); type: functional
[17] = biological target: T1, von Hippel-Lindau disease tumor suppressor/Inactive tyrosine-protein kinase transmembrane receptor ROR1 (Homo sapiens, UniProt P40337+Q01973); test: PROTAC activity at VHL/ROR1 in human NCI-H23 cells assessed as induction of ROR1 degradation preincubated with cycloheximide followed by compound addition and measured after 6 hrs by Western blot analysis; type: cell-based
Target sequence in this assay (P40337 whole entry): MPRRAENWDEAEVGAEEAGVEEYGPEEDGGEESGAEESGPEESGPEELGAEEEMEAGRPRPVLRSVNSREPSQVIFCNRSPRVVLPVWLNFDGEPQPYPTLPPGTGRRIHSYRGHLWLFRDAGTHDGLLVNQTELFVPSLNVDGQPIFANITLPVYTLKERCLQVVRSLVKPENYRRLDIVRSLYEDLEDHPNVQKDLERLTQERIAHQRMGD
Target sequence in this assay (Q01973 30-937 partner limits assumed): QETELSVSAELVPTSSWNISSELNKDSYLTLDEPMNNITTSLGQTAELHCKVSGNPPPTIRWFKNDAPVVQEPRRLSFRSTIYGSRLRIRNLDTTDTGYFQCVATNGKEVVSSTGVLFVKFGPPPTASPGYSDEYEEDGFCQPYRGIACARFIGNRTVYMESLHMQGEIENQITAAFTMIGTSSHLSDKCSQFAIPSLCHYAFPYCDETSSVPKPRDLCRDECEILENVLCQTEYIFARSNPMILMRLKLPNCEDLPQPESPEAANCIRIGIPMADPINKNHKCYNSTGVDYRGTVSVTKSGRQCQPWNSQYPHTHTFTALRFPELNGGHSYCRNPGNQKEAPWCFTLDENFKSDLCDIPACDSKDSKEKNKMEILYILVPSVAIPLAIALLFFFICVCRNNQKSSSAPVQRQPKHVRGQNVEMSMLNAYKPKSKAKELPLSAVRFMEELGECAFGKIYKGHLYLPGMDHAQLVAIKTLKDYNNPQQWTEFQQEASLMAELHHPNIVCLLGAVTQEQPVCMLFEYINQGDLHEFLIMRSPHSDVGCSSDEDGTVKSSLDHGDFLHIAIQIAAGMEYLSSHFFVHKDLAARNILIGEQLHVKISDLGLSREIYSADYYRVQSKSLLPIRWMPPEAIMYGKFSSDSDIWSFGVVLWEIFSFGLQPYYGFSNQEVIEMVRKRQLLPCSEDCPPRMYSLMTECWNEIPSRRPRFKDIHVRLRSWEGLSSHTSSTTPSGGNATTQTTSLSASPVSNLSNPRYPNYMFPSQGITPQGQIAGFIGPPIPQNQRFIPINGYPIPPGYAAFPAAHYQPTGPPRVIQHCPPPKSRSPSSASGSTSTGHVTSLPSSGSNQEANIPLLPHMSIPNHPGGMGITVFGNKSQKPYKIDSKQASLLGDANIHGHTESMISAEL

[18] = biological target: T1, von Hippel-Lindau disease tumor suppressor/Inactive tyrosine-protein kinase transmembrane receptor ROR1; test: PROTAC activity at VHL/ROR1 in human NCI-H23 cells assessed as induction of ROR1 degradation by measuring maximal efficacy at 10 to 1000 nM incubated for 12 hrs by Western blot analysis relative to control; type: cell-based; details: dose 10-1000 nM
Target sequence in this assay (P40337 whole entry): as the sequence (P40337 whole entry) above
Target sequence in this assay (Q01973 30-937 partner limits assumed): as the sequence (Q01973 30-937 partner limits assumed) above

[19] = biological target: T2, von Hippel-Lindau disease tumor suppressor/Tyrosine-protein kinase transmembrane receptor ROR2 (Homo sapiens) (UniProt Q01974+P40337); test: PROTAC activity at VHL/ROR2 in human NCI-H1975 cells assessed as induction of ROR2 degradation at 1 uM by Western blot analysis; type: cell-based
T2 sequence (P40337 whole entry, looked up): as the sequence (P40337 whole entry) above
T2 sequence (Q01974 whole entry, looked up): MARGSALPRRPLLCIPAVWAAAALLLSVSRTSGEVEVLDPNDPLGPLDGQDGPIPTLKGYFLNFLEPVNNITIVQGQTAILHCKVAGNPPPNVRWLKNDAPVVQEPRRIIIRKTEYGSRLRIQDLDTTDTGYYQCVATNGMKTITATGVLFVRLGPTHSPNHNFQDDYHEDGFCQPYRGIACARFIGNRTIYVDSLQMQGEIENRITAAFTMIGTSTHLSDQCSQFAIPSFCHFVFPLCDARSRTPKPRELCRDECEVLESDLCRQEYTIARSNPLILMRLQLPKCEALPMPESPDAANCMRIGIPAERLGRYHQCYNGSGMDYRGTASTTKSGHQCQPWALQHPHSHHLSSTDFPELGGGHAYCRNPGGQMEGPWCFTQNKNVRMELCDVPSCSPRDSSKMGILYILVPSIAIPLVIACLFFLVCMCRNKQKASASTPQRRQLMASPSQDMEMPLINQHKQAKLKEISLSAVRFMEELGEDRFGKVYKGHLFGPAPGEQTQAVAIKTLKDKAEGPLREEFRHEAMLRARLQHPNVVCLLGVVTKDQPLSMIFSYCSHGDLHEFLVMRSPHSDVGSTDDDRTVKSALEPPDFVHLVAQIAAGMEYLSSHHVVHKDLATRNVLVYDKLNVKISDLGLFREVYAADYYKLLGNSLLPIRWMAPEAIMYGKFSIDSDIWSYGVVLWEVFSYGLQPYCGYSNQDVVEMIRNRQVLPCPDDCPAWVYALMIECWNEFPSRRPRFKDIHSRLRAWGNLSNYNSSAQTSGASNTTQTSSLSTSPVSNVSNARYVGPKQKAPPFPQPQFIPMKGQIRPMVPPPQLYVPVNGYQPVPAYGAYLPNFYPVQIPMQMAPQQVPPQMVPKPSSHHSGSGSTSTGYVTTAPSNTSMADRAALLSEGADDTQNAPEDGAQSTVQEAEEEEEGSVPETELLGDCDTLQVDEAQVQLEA

NCI-H23 [20] = test: Induction of apoptosis in human NCI-H23 cells assessed as PARP1 cleavage at 0.1 uM measured after 10 hrs by Western blot analysis; type: functional, cell-based
[21] = biological target: T3, von Hippel-Lindau disease tumor suppressor/Cyclin-dependent kinase-like 2 (Homo sapiens) (UniProt Q92772+P40337); test: PROTAC activity at VHL/CDKL2 in human NCI-H1975 cells assessed as induction of CDKL2 degradation by Western blot analysis; type: cell-based
[22] = biological target: T1, von Hippel-Lindau disease tumor suppressor/Inactive tyrosine-protein kinase transmembrane receptor ROR1; test: PROTAC activity at VHL/ROR1 in human NCI-H23 cells assessed as induction of ROR1 degradation at 1 uM incubated for 24 hrs by Western blot analysis relative to control; type: cell-based
Target sequence in this assay (P40337 whole entry): as the sequence (P40337 whole entry) above
Target sequence in this assay (Q01973 30-937 partner limits assumed): as the sequence (Q01973 30-937 partner limits assumed) above

[23] = biological target: T1, von Hippel-Lindau disease tumor suppressor/Inactive tyrosine-protein kinase transmembrane receptor ROR1; test: PROTAC activity at VHL/ROR1 in human NCI-H1975 cells assessed as induction of ROR1 degradation incubated for 12 hrs by Western blot analysis; type: cell-based
Target sequence in this assay (P40337 whole entry): as the sequence (P40337 whole entry) above
Target sequence in this assay (Q01973 whole entry): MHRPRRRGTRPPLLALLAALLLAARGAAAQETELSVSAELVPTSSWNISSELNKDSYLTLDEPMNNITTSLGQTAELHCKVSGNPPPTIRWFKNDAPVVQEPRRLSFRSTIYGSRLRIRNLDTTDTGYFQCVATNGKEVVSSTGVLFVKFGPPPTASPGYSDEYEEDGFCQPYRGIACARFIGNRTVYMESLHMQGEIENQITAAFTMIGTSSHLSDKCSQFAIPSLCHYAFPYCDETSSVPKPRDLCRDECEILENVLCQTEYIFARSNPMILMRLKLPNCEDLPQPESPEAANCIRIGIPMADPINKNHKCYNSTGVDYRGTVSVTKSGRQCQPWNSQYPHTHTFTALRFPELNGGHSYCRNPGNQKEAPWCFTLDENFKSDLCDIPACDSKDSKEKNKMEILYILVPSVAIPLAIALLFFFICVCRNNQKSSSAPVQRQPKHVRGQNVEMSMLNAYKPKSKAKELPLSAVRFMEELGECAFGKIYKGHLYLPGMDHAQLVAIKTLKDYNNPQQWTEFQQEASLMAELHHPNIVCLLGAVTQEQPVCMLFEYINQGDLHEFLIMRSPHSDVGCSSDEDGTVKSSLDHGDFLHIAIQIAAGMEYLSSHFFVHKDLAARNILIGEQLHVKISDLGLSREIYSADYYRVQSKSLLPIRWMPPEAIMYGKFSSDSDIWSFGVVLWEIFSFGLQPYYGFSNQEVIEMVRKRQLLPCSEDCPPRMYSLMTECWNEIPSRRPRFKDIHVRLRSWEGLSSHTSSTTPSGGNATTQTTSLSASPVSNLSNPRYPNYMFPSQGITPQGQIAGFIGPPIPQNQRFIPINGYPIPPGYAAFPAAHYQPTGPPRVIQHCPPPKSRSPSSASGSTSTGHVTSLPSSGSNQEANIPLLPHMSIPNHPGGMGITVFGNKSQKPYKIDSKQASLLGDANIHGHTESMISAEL

[24] = biological target: T1, von Hippel-Lindau disease tumor suppressor/Inactive tyrosine-protein kinase transmembrane receptor ROR1; test: PROTAC activity at VHL/ROR1 in human NCI-H23 cells assessed as induction of ROR1 degradation at 0.7 uM preincubated with TAK-243 for 2 hrs followed by compound addition and measured after 24 hrs by Western blot analysis; type: cell-based
Target sequence in this assay (P40337 whole entry): as the sequence (P40337 whole entry) above
Target sequence in this assay (Q01973 30-937 partner limits assumed): as the sequence (Q01973 30-937 partner limits assumed) above

[25] = biological target: T4, von Hippel-Lindau disease tumor suppressor/Cyclin-dependent kinase 7 (Homo sapiens) (UniProt P50613+P40337); test: PROTAC activity at VHL/CDK7 in human NCI-H23 cells assessed as induction of CDK7 degradation by Western blot analysis; type: cell-based
T4 sequence (P40337 whole entry, looked up): as the sequence (P40337 whole entry) above
T4 sequence (P50613 whole entry, looked up): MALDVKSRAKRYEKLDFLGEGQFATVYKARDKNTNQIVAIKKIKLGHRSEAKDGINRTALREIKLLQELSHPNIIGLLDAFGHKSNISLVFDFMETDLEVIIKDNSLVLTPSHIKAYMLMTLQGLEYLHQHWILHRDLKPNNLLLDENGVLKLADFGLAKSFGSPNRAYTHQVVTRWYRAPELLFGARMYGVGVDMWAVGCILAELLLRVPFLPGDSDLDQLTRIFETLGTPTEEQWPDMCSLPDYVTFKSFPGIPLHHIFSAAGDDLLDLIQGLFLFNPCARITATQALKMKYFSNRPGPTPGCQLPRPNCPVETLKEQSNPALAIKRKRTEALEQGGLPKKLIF

[26] = biological target: T5, von Hippel-Lindau disease tumor suppressor/Cyclin-dependent kinase 4 (Homo sapiens) (UniProt P11802+P40337); test: PROTAC activity at VHL/CDK4 in human NCI-H1975 cells assessed as induction of CDK4 degradation by Western blot analysis; type: cell-based
[27] = biological target: T4, von Hippel-Lindau disease tumor suppressor/Cyclin-dependent kinase 7 (Homo sapiens); test: PROTAC activity at VHL/CDK7 in human NCI-H1975 cells assessed as induction of CDK7 degradation by Western blot analysis; type: cell-based
[28] = biological target: T1, von Hippel-Lindau disease tumor suppressor/Inactive tyrosine-protein kinase transmembrane receptor ROR1; test: PROTAC activity at VHL/ROR1 in human NCI-H23 cells assessed as induction of ROR1 degradation at 1 uM incubated for 24 hrs by Western blot analysis; type: cell-based
Target sequence in this assay (P40337 whole entry): as the sequence (P40337 whole entry) above
Target sequence in this assay (Q01973 30-937 partner limits assumed): as the sequence (Q01973 30-937 partner limits assumed) above

[29] = biological target: T3, von Hippel-Lindau disease tumor suppressor/Cyclin-dependent kinase-like 2 (Homo sapiens); test: PROTAC activity at VHL/CDKL2 in human NCI-H23 cells assessed as induction of CDKL2 degradation by Western blot analysis; type: cell-based
[30] = biological target: T1, von Hippel-Lindau disease tumor suppressor/Inactive tyrosine-protein kinase transmembrane receptor ROR1; test: PROTAC activity at VHL/ROR1 in human NCI-H23 cells assessed as induction of ROR1 degradation incubated for 12 hrs by Western blot analysis; type: cell-based
[31] = biological target: T1, von Hippel-Lindau disease tumor suppressor/Inactive tyrosine-protein kinase transmembrane receptor ROR1; test: PROTAC activity at VHL/ROR1 in human NCI-H23 cells assessed as induction of ROR1 degradation at 1 uM by Western blot analysis; type: cell-based; details: time 2-24 hrs
Target sequence in this assay (P40337 whole entry): as the sequence (P40337 whole entry) above
Target sequence in this assay (Q01973 30-937 partner limits assumed): as the sequence (Q01973 30-937 partner limits assumed) above

[32] = biological target: T5, von Hippel-Lindau disease tumor suppressor/Cyclin-dependent kinase 4 (Homo sapiens); test: PROTAC activity at VHL/CDK4 in human NCI-H23 cells assessed as induction of CDK4 degradation by Western blot analysis; type: cell-based
[33] = biological target: T2, von Hippel-Lindau disease tumor suppressor/Tyrosine-protein kinase transmembrane receptor ROR2 (Homo sapiens); test: PROTAC activity at VHL/ROR2 in human NCI-H23 cells assessed as induction of ROR2 degradation by Western blot analysis; type: cell-based
[34] = biological target: T1, von Hippel-Lindau disease tumor suppressor/Inactive tyrosine-protein kinase transmembrane receptor ROR1; test: PROTAC activity at VHL/ROR1 in human NCI-H23 cells assessed as induction of ROR1 degradation at 0.1 uM incubated for 24 hrs by Western blot analysis relative to control; type: cell-based
[35] = biological target: T1, von Hippel-Lindau disease tumor suppressor/Inactive tyrosine-protein kinase transmembrane receptor ROR1; test: PROTAC activity at VHL/ROR1 in human NCI-H460 cells assessed as induction of ROR1 degradation incubated for 12 hrs by Western blot analysis; type: cell-based
Target sequence in this assay (P40337 whole entry): as the sequence (P40337 whole entry) above
Target sequence in this assay (Q01973 whole entry): as the sequence (Q01973 whole entry) above

[36] = biological target: T1, von Hippel-Lindau disease tumor suppressor/Inactive tyrosine-protein kinase transmembrane receptor ROR1; test: PROTAC activity at VHL/ROR1 in human NCI-H1299 cells assessed as induction of ROR1 degradation incubated for 12 hrs by Western blot analysis; type: cell-based
Target sequence in this assay (P40337 whole entry): as the sequence (P40337 whole entry) above
Target sequence in this assay (Q01973 whole entry): as the sequence (Q01973 whole entry) above

[37] = biological target: T1, von Hippel-Lindau disease tumor suppressor/Inactive tyrosine-protein kinase transmembrane receptor ROR1; test: PROTAC activity at VHL/ROR1 in human NCI-H23 cells assessed as induction of ROR1 degradation at 1 uM incubated for 4 hrs by Western blot analysis; type: cell-based
[38] = biological target: T1, von Hippel-Lindau disease tumor suppressor/Inactive tyrosine-protein kinase transmembrane receptor ROR1; test: PROTAC activity at VHL/ROR1 in human NCI-H23 cells assessed as induction of ROR1 degradation at 0.5 uM preincubated with bafilomycin A1 for 2 hrs followed by compound addition and measured after 24 hrs by Western blot analysis; type: cell-based
[39] = biological target: T1, von Hippel-Lindau disease tumor suppressor/Inactive tyrosine-protein kinase transmembrane receptor ROR1; test: PROTAC activity at VHL/ROR1 in human NCI-H23 cells assessed as induction of ROR1 degradation at 0.7 uM preincubated with PS-341 for 2 hrs followed by compound addition and measured after 24 hrs by Western blot analysis; type: cell-based

SMILES: CCOCCN1CCN(c2ccc(-c3nc4c(NC5CCN(CC)CC5)c(Br)cnc4[nH]3)cc2)CC1
- IC50 (NCI-H23 [1]): 483 nM
- IC50 (NCI-H460): 5210 nM
- Activity (NCI-H23 [2]): Active; Less Potent Compared To Compound 11
- Kd [3]: 42000 nM
- viability at 0.3 µM (NCI-H23 [4]): 94.5%
- Activity (NCI-H23 [5]): 0.5%
- Activity (NCI-H23 [6]): 0.2%
- Activity (NCI-H23 [7]): 100%
- IC50 (NCI-H1299): 5820 nM
- Activity (NCI-H23 [8]): 29.5%
- IC50 (NCI-H1975): 371 nM
- viability at 1 µM (NCI-H23 [9]): 63.7%
- Activity (NCI-H23 [10]): 0.2%
- Activity (NCI-H23 [11]): 2.5%
- Activity (NCI-H23 [12]): 6.1%
- viability at 0.1 µM (NCI-H23 [13]): 96.9%
- Activity (NCI-H23 [14]): 4.3%
- Activity (NCI-H23 [15]): 0.7%
- Activity (NCI-H23 [16]): 1%

SMILES: CCN1CCC(Nc2c(Br)cnc3[nH]c(-c4ccc(N5CCN(C(=O)CCCCCCCCC(=O)N[C@H](C(=O)N6C[C@H](O)C[C@H]6C(=O)NCc6ccc(-c7scnc7C)cc6)C(C)(C)C)CC5)cc4)nc23)CC1
- IC50 (NCI-H23 [1]): 36 nM
- IC50 (NCI-H460): 85 nM
- viability at 0.3 µM (NCI-H23 [4]): 32.5%
- Activity [17]: Active; Compound Reduction Ror1 Protein Via Protein Degradation Pathway
- Emax [18]: 93.7%
- Activity (NCI-H23 [5]): 6.5%
- Activity (NCI-H23 [6]): 0.3%
- Activity [19]: Active; Slight Degradation Observed
- Activity (NCI-H23 [20]): Active
- Activity [21]: inactive
- Activity [22]: 99.7%
- DC50 [23]: 42.1 nM
- IC50 (NCI-H1299): 164 nM
- Activity [24]: inactive
- Activity [25]: inactive
- Activity [26]: inactive
- Activity [27]: inactive
- Activity [28]: Active; Maximal Degradation Observed
- Activity [29]: inactive
- Activity (NCI-H23 [8]): 46.9%
- IC50 (NCI-H1975): 63 nM
- viability at 1 µM (NCI-H23 [9]): 29.9%
- Activity (NCI-H23 [10]): 0.8%
- Activity [30]: Dose-dependent-effect
- DC50 [30]: 40.9 nM
- Activity [31]: Time-dependent-effect
- Activity (NCI-H23 [11]): 29.9%
- Activity [32]: inactive
- Activity [33]: inactive
- Activity (NCI-H23 [12]): 22.1%
- viability at 0.1 µM (NCI-H23 [13]): 63.2%
- Activity [34]: 93%
- DC50 [35]: 69 nM
- DC50 [36]: 83.3 nM
- Activity [37]: Active
- Activity [38]: Active
- Activity (NCI-H23 [14]): 46.5%
- Activity (NCI-H23 [15]): 1.4%
- Activity [39]: inactive
- Activity (NCI-H23 [16]): 20.1%
